# Earlier results in patent US20260098286A1, “Low Dose Psilocybin in Foodstuff and Microbes for Same” (ATX PHARMERS LLC, priority 2021, published 2026).
# Assays:
# [1] = tested on: human serotonin-related receptors
# [2] = degrades in the presence of oxygen
# [3] = adults
# [4] = in vivo
# [5] = weight per weight basis
# [6] = not given; remark: listed apart in the source
Compound,number of human serotonin-related receptors bound [1],stability in solution [2],blood plasma concentration at which psychological effects occur [3],psilocin concentrations in the plasma (average) ([3]; within 2 hours after single 15 mg oral psilocybin dose),detectability in the urine (after 7 days),ingested psilocybin absorbed through the stomach and intestine (animal studies),absorbed psilocybin excreted in the bile and feces (within 24 hours),absorbed psilocybin excreted into the urine (within 24 hours),toxicity [4],potency relative to LSD (times less potent) [5],effects begin after ingestion ([6]; after ingestion) [min],"effects last ([6]; depending on dose, species, and individual metabolism) [h]",half-life of psilocybin ([6]; taken orally) [h]
CN(C)CCc1c[nH]c2cccc(O)c12 [psilocin],over 15,relatively unstable,4-6 μg/liter,about 8 μg/liter,–,–,–,–,–,–,–,–,–
"CN(C)CCc1c[nH]c2cccc(OP(=O)(O)O)c12 [psilocybin, 4-phosphoryloxy-N,N-dimethyltryptamine]",–,–,–,–,still detectable,about 50%,15-20%,about 65%,low toxicity,about 100 times,10 to 40,2 to 6,2.72 ± 1.07
